Measurements published in patent publication US20100190851A1, “Use of Entacapone in cosmetic, dermatological and pharmaceutical compositions” (priority 2007, published 2010).

What was measured:
[1] = molecular target: T1, human P-Selectin-IgG-chimera (Homo sapiens, UniProt P16109); experiment: Sialyl Lewis^X Tyrosine Sulfate Assay (sLe^X TSA), P-selectin; conditions: binding of P-selectin chimera to sLe^X-tyrosine sulfate polyacrylamide
T1 construct: fused on or other part: human IgG Fc part, fused on as a capture and dimerising handle (captured by goat anti human Fc antibody)
T1 sequence (P16109 42-195 limits assumed): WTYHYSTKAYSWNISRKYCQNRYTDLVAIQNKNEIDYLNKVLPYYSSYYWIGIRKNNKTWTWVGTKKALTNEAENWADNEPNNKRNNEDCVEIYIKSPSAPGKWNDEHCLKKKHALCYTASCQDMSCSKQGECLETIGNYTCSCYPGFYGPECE
Method: IC50-values are determined.
Microtiter plates are coated overnight in carbonate buffer pH9.6 with goat anti human Fc mAB (10 μg/ml).
After incubation for 2 h at 37° C., wells are washed for six times with in assay buffer incl. 0.005% Polyoxyethylenesorbitan monolaurate (TWEEN 20), developed for 10-15 min with 20 μl 3,3′,5,5′-tetramethylbenzidine (TMB)/H202 substrate solution and stopped with 20 μl 1 M H2SO4.

[2] = molecular target: T2, human L-Selectin-IgG-chimera (Homo sapiens, UniProt P14151); experiment: Sialyl Lewis^X Tyrosine Sulfate Assay (sLe^X TSA), L-selectin; conditions: binding of L-selectin chimera to sLe^X-tyrosine sulfate polyacrylamide
T2 construct: fused on or other part: human IgG Fc part, fused on as a capture and dimerising handle (captured by goat anti human Fc antibody)
T2 sequence (P14151 39-318 limits assumed): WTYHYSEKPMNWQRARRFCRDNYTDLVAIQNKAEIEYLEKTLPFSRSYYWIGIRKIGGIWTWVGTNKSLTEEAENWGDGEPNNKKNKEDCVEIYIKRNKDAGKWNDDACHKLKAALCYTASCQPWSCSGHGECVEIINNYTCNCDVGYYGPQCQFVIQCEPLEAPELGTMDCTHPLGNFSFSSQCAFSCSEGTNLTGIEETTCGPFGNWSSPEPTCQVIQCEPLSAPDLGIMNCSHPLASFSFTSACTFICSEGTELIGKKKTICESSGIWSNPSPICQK
Method: Sialyl Lewis^X Tyrosine Sulfate Assay (sLe^X TSA):
Compound of formula (I) is assayed on a molecular level for the ability to inhibit the binding of P- and L-selectin chimeric molecules to sLe^X and tyrosinesulfate residues linked to a polymeric matrix as a PSGL-1 substitute. IC50-values are determined.
Microtiter plates are coated overnight in carbonate buffer pH9.6 with goat anti human Fc mAB (10 μg/ml). After washing in assay buffer (25 mM 4-(2-hydroxyethyl)-1-piperazineethanesulfonic acid (HEPES), 150 mM NaCl, 1 mM CaCl2 pH7.4) and blocking (3% bovine serum albumin (BSA) in assay buffer) plates are incubated for 2 h at 37° C. with human P-Selectin-IgG-chimera (0.61 nM respectively 150 ng/mL) or human L-Selectin-IgG-chimera (0.61 nM respectively 89 ng/mL). 5 μl of sLe^X-tyrosine sulfate polyacrylamide (1 mg/ml) carrying 15% sLe^X, 10% Tyrosine-sulfate and 5% biotin is complexed with 20 μl Streptavidin-Peroxidase solution (1 mg/ml) and 25 μl assay buffer without CaCl2. […]
After incubation for 2 h at 37° C., wells are washed for six times with in assay buffer incl. […] Bound sLe^X-Tyrosine sulfate ligand complex is determined by measuring optical density at 450 nm vs. 620 nm in a Fusion alpha-FP reader (sold from Packard Bioscience, Dreieich, Germany). […]

[3] = tested on: human E-selectin-IgG chimera; experiment: Flow chamber assay, attachment of HL-60 cells to E-selectin; type: cell-based; design: dose or concentration left out as unconfirmed; conditions: flow shear 1 dyne/cm^2; after 5 minutes continuous flow
Method: (§1) Flow Chamber Assay/Cell Adhesion and Rolling under Flow Conditions
(§2) To assess the capability of compound of formula (I) to inhibit cell binding under dynamic conditions resembling the flow in a blood vessel, flow chamber assays addressing/testing binding of HL-60 cells/various cell lines to P-selectin, and E-selectin chimeric molecules are performed.
(§3) Cell attachment under flow conditions is determined using a parallel flow chamber system. […]
(§4) After washing with assay buffer (“Roswell Park Memorial Institute 1640” (RPMI 1640)+10 mM HEPES) the dish is fitted into a parallel plate laminar flow chamber (sold from Glycotech, Rockville, Md.) and mounted on an inverted phase-contrast microscope (sold from Olympus, Hamburg, Germany) equipped with a CCD camera (JVC) that is connected to a PC. […] The flow rate is then decreased resulting in a calculated flow shear of 1 dyne/cm^2. Video sequences of 10 low power fields are digitally recorded after 5 minutes continuous flow. The percentage of inhibition is calculated from the mean number of cells per field that attached to the coated dish surface in the presence versus absence of compound of formula (I) of at independent experiments. […]

[4] = tested on: human P-selectin-IgG chimera; experiment: Flow chamber assay, attachment of HL-60 cells to P-selectin; type: cell-based; design: dose or concentration left out as unconfirmed; conditions: flow shear 1 dyne/cm^2; after 5 minutes continuous flow
Method: as §1, §2, §3, §4

[5] = tested on: Jurkat T-cells (attachment to E-Selectin); experiment: Modulation of T-cells: flow chamber assay with pre-treated Jurkat cells, E-selectin; type: cell-based; conditions: cells pre-incubated 5 minutes with compound, washed twice; flow chamber as Example 2
Method: (§5) Cell attachment under flow conditions is determined using a parallel flow chamber system. A 35 mm polystyrene culture dish is coated for 1 h at room temperature with coating buffer (50 mM tris-(hydroxymethyl) aminomethane buffer (Tris), 150 mM NaCl, 2 mM CaCl2; pH 7.4) containing human E- or P-selectin-IgG chimera at concentrations of […], respectively. After removal of the coating solution non specific binding sites are blocked for an additional hour with 1% BSA in coating buffer at room temperature.
as §4

[6] = tested on: Jurkat T-cells (attachment to P-Selectin); experiment: Modulation of T-cells: flow chamber assay with pre-treated Jurkat cells, P-selectin; type: cell-based; conditions: cells pre-incubated 5 minutes with compound, washed twice; flow chamber as Example 2
Method: as §5, §4

[7] = Skin penetration, parallel artificial membrane permeability assay (skin-PAMPA); type: in vitro ADME
Method: To predict passive human skin permeability of compound of formula (I) a parallel artificial membrane permeability assay is performed that mimics the main barrier properties of human stratum corneum (skin-PAMPA).
The filter of the donor compartment of a hydrophobic PVDF 96-well microtiter filter plate (Millipore, Schwalbach, Germany) is coated with a mixture of 70% silicone and 30% isopropyl myristate dissolved in hexane. After evaporation of solvent the donor compartment is filled with buffer (pH 4) containing compound of formula (I) and assembled to the acceptor compartment filled with buffer (pH 4). The assembled plate is incubated at room temperature for 16 hours. Absorbance of compound of formula (I) in the dissembled acceptor compartment is measured with a photometer (Spectramax, Molecular Devices, Sunnyvale, Calif., USA). Permeation (% flux) of compound of formula (I) through the coated filter (artificial membrane) is calculated based on equilibrium absorbance.

[8] = tested on: neutrophil infiltration into the peritoneum; experiment: Thioglycollate-induced peritonitis in mice; type: in vivo
Method: The compound of formula (I) is investigated in a thioglycollate-induced peritonitis model in mice employing standard method (see A. E. R. Hicks et al., J. Leukoc. Biol. 2005, 77, 59-66; M. C. Montesinos et al., Arthritis Res. Ther. 2006, 8(2): R53-R59).
Groups of 10 male mice weighting 24±2 g are used. Peritonitis is induced by intraperitoneal (i.p.) injection of 1 ml 4% thioglycollate medium in 0.9% NaCl to cause neutrophil infiltration into the peritoneum. The compound of formula (I) is dissolved in DMSO, diluted with PBS (phosphate buffered saline) and adjusted to neutral pH with NaOH. The solution of the compound of formula (I) and vehicle is administered intravenously (i.v.) 15 minutes or by oral gavage (p.o.) 60 minutes before thioglycollate medium challenge. The steroid compound Dexamethasone (3 mg/kg, p.o.; known product for rheumatoid arthritis) as the positive control compound is administered by oral gavage 60 minutes before thioglycollate medium challenge.
After 4 hr of induction, neutrophil counts are determined by Automated Hematology Analyzer (provider: Sysmex, XT-2000i equipped with XT-2000iV software) in peritoneal lavage (3 ml PBS) harvested from animals sacrificed by CO2 asphyxiation.
Normal control groups are mock induced by i.p. injection of 0.9% NaCl Inhibition of 30% or more (≧30) in the neutrophil count relative to the vehicle control is considered significant and indicates possible anti-inflammatory activity.
The compound of formula (I) is administered i.v. in different doses, 25 mg/kg, 10 mg/kg, 5 mg/kg, 1 mg/kg, 0.5 mg/kg and 0.25 mg/kg. The compound of formula (I) is also administered p.o. in different doses, 500 mg/kg, 250 mg/kg, 100 mg/kg, 50 mg/kg, 25 mg/kg, 10 mg/kg, 5 mg/kg and 1 mg/kg.

| IC50 [1] | IC50 [2] | Permeation (% flux) ([7]; 70% silicone / 30% isopropyl myristate membrane, pH 4, room temperature, 16 hours) | skin penetration (in words) ([7]; skin-penetration assay, Example 4) | Compound | % inhibition of attachment of HL-60 cells, E-Selectin [3] | % inhibition of attachment of HL-60 cells, P-Selectin [4] | % inhibition of attachment of Jurkat cells (pre-treated), E-Selectin [5] | % inhibition of attachment of Jurkat cells (pre-treated), P-Selectin [6] | inhibition of neutrophil influx compared with dexamethasone (3 mg/kg, p.o.) ([8]; depending on the dose) | inhibition of neutrophil influx (in words) ([8]; i.v. 0.25-25 mg/kg or p.o. 1-500 mg/kg, inhibition of 30% or more considered significant) | inhibition of neutrophil influx (inhibition rate) ([8]; i.v. and p.o. at different doses before thioglycollate, neutrophil count 4 hr after induction) |
| --- | --- | --- | --- | --- | --- | --- | --- | --- | --- | --- | --- |
| 189 µM | 1250 µM | >60% | high penetration | CCN(CC)C(=O)/C(C#N)=C/c1cc(O)c(O)c([N+](=O)[O-])c1 [compound of formula (I), (2E)-2-cyano-3-(3,4-dihydroxy-5-nitrophenyl)-N,N-diethylacrylamide] | 30% | 36% | 30% | 39% | comparable or better | significant inhibition of neutrophil influx | more than 30% |
|  | > 3600 µM |  |  | sialyl Lewis X [sLe^X] |  |  |  |  |  |  |  |
